Values quoted from earlier work as cited in patent US6627427B1, “Heterologous production of 15-methyl-6-deoxyerthronolide B” (Kosan Biosciences, Inc., priority 1999, dated 2003).

Experiments:
Gram-positive pathogens = conditions: including those carrying inducible MLS resistance and many S. pneumoniae and S. pyogenes strains carrying constitutive MLS resistance
[1] = statement with reference to PCT publications

| Structure (SMILES) | activity against Gram-positive pathogens (Gram-positive pathogens) | antibiotic activity [1] |
| --- | --- | --- |
| CC[C@H]1OC(=O)[C@H](C)C(=O)[C@H](C)[C@@H](O[C@@H]2O[C@H](C)C[C@H](N(C)C)[C@H]2O)[C@](C)(OC/C=C/c2cnc3ccccc3c2)C[C@@H](C)C(=O)[C@H](C)[C@H]2NC(=O)O[C@@]21C [ABT-773] | excellent activity | – |
| CC[C@H]1OC(=O)[C@H](C)C(=O)[C@H](C)[C@@H](O[C@@H]2O[C@H](C)C[C@H](N(C)C)[C@H]2O)[C@](C)(OC)C[C@@H](C)C(=O)[C@H](C)[C@H]2N(CCCCn3cnc(-c4cccnc4)c3)C(=O)O[C@]12C [HMR 3647] | excellent activity | – |
| CCC[C@H]1OC(=O)[C@H](C)[C@@H](O[C@@H]2C[C@@](C)(OC)[C@@H](O)[C@H](C)O2)[C@H](C)[C@@H](O[C@@H]2O[C@H](C)C[C@H](N(C)C)[C@H]2O)[C@](C)(O)C[C@@H](C)C(=O)[C@H](C)[C@@H](O)[C@]1(C)O [Propyl erythromycin A, 15-methylerythromycin A] | – | potent antibiotic activity |
